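Tested at 5 concentrations; 48 h exposure; 96-well plates; endpoints linearly interpolated, else capped at highest concentration. GI50 is the concentration that inhibits growth by half.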 Active and inactive are the calls of the source. Rule as the data show it: active = GI50 up to about 1.1 µM and inactive = higher.
Legend:
Test in all cases: growth of human tumour cells (NCI), 48 h
SW-620 = tested on: SW-620
EKVX = tested on: EKVX
SN12C = tested on: SN12C
CCRF-CEM = tested on: CCRF-CEM
HL-60 = tested on: HL-60
LOX IMVI = tested on: LOX IMVI
K562 = tested on: K562
SF-268 = tested on: SF-268
COLO 205 = tested on: COLO 205
RPMI-8226 = tested on: RPMI-8226
NCI/ADR-RES = tested on: NCI/ADR-RES
DU-145 = tested on: DU-145
NCI-H226 = tested on: NCI-H226
MOLT-4 = tested on: MOLT-4
OVCAR-4 = tested on: OVCAR-4
HCT-15 = tested on: HCT-15
OVCAR-5 = tested on: OVCAR-5
U-251 = tested on: U-251
CAKI-1 = tested on: CAKI-1
SK-OV-3 = tested on: SK-OV-3
A498 = tested on: A498
Malme-3M = tested on: Malme-3M
NCI-H460 = tested on: NCI-H460
HOP-62 = tested on: HOP-62
TK-10 = tested on: TK-10
T47D = tested on: T47D
OVCAR-3 = tested on: OVCAR-3
UO-31 = tested on: UO-31
NCI-H23 = tested on: NCI-H23
MDA-MB-435 = tested on: MDA-MB-435
786-0 = tested on: 786-0
M14 = tested on: M14
SK-MEL-2 = tested on: SK-MEL-2
RXF 393 = tested on: RXF 393
KM12 = tested on: KM12
MDA-N = tested on: MDA-N
PC-3 = tested on: PC-3
UACC-62 = tested on: UACC-62
SK-MEL-28 = tested on: SK-MEL-28
SNB-75 = tested on: SNB-75
SR = tested on: SR
HOP-92 = tested on: HOP-92
ACHN = tested on: ACHN
Hs-578T = tested on: Hs-578T
MCF7 = tested on: MCF7
SF-539 = tested on: SF-539
MDA-MB-231 = tested on: MDA-MB-231
UACC-257 = tested on: UACC-257
BT-549 = tested on: BT-549
SNB-19 = tested on: SNB-19
OVCAR-8 = tested on: OVCAR-8
HCT-116 = tested on: HCT-116
SF-295 = tested on: SF-295
HT-29 = tested on: HT-29
IGROV-1 = tested on: IGROV-1
SK-MEL-5 = tested on: SK-MEL-5
A549 = tested on: A549
NCI-H522 = tested on: NCI-H522
HCC 2998 = tested on: HCC 2998

Measured: GI50

O=c1c2c(nc3[nH]ccn13)CCC2
> 10 µM: HCT-15
inactive: SW-620 > 10 µM | EKVX > 10 µM | SN12C > 10 µM | CCRF-CEM > 10 µM | HL-60 > 10 µM | LOX IMVI > 10 µM | K562 > 10 µM | SF-268 > 10 µM | COLO 205 > 10 µM | RPMI-8226 > 10 µM | NCI/ADR-RES > 10 µM | DU-145 > 10 µM | NCI-H226 > 10 µM | MOLT-4 > 10 µM | OVCAR-4 > 10 µM | OVCAR-5 > 10 µM | U-251 > 10 µM | CAKI-1 > 10 µM | SK-OV-3 > 10 µM | A498 2.13 µM | Malme-3M > 10 µM | NCI-H460 > 10 µM | HOP-62 > 10 µM | TK-10 > 10 µM | T47D > 10 µM | OVCAR-3 > 10 µM | UO-31 > 10 µM | NCI-H23 > 10 µM | MDA-MB-435 > 10 µM | 786-0 > 10 µM | M14 > 10 µM | SK-MEL-2 > 10 µM | RXF 393 > 10 µM | KM12 > 10 µM | MDA-N > 10 µM | PC-3 > 10 µM | UACC-62 > 10 µM | SK-MEL-28 > 10 µM | SNB-75 > 10 µM | SR > 10 µM | HOP-92 > 10 µM | ACHN > 10 µM | Hs-578T > 10 µM | MCF7 > 10 µM | SF-539 > 10 µM | MDA-MB-231 > 10 µM | UACC-257 > 10 µM | BT-549 > 10 µM | SNB-19 > 10 µM | OVCAR-8 > 10 µM | HCT-116 > 10 µM | SF-295 > 10 µM | HT-29 > 10 µM | IGROV-1 > 10 µM | SK-MEL-5 > 10 µM | A549 > 10 µM

COC(=O)C(=O)C(C(=O)C(=O)Nc1cc(C)ccc1C)c1nc2ccccc2nc1O (stereo not drawn)
inactive: SW-620 > 100 µM | EKVX 26.6 µM | NCI-H522 > 100 µM | SN12C > 100 µM | CCRF-CEM 36.1 µM | HCC 2998 > 100 µM | LOX IMVI > 100 µM | K562 > 100 µM | SF-268 > 100 µM | COLO 205 > 100 µM | RPMI-8226 19.6 µM | NCI/ADR-RES > 100 µM | DU-145 > 100 µM | NCI-H226 > 100 µM | MOLT-4 71.3 µM | OVCAR-4 > 100 µM | OVCAR-5 > 100 µM | U-251 > 100 µM | CAKI-1 > 100 µM | SK-OV-3 > 100 µM | A498 > 100 µM | Malme-3M > 100 µM | NCI-H460 > 100 µM | HOP-62 > 100 µM | TK-10 > 100 µM | T47D > 100 µM | OVCAR-3 > 100 µM | UO-31 > 100 µM | NCI-H23 > 100 µM | MDA-MB-435 > 100 µM | 786-0 > 100 µM | M14 > 100 µM | SK-MEL-2 > 100 µM | RXF 393 77.3 µM | KM12 > 100 µM | MDA-N > 100 µM | PC-3 > 100 µM | UACC-62 87.7 µM | SK-MEL-28 > 100 µM | SNB-75 > 100 µM | SR 30.3 µM | HOP-92 26.7 µM | ACHN > 100 µM | Hs-578T 74.3 µM | MCF7 > 100 µM | SF-539 > 100 µM | MDA-MB-231 > 100 µM | UACC-257 > 100 µM | BT-549 > 100 µM | SNB-19 > 100 µM | OVCAR-8 > 100 µM | HCT-116 > 100 µM | SF-295 > 100 µM | HT-29 > 100 µM | IGROV-1 67 µM | SK-MEL-5 > 100 µM | A549 85.3 µM
> 100 µM: HCT-15

NC1=Nc2cc(Cl)ccc2Sc2nc3ccccc3n21
> 100 µM: HCT-15
inactive: SW-620 > 86.3 µM | EKVX 20.3 µM | NCI-H522 3.92 µM | SN12C > 100 µM | CCRF-CEM 1.22 µM | HL-60 2.39 µM | HCC 2998 > 100 µM | LOX IMVI 4.4 µM | K562 3.47 µM | SF-268 > 61.5 µM | COLO 205 2.5 µM | RPMI-8226 5.73 µM | NCI/ADR-RES > 100 µM | DU-145 > 100 µM | NCI-H226 2.86 µM | MOLT-4 2.61 µM | OVCAR-4 > 20.8 µM | U-251 4.48 µM | CAKI-1 > 100 µM | SK-OV-3 > 100 µM | A498 > 100 µM | Malme-3M > 100 µM | NCI-H460 4.13 µM | HOP-62 > 86.3 µM | TK-10 > 88.9 µM | T47D > 33.8 µM | OVCAR-3 > 100 µM | UO-31 > 100 µM | NCI-H23 6.53 µM | MDA-MB-435 > 100 µM | 786-0 14.2 µM | M14 2.52 µM | SK-MEL-2 20 µM | KM12 > 100 µM | MDA-N 3.44 µM | PC-3 6.76 µM | UACC-62 4.66 µM | SK-MEL-28 > 100 µM | SNB-75 21.4 µM | SR 2.64 µM | HOP-92 16.1 µM | ACHN > 100 µM | Hs-578T > 72.3 µM | MCF7 > 59.2 µM | SF-539 > 100 µM | MDA-MB-231 > 20.7 µM | UACC-257 5.83 µM | BT-549 > 100 µM | SNB-19 22.2 µM | OVCAR-8 5.09 µM | HCT-116 1.87 µM | SF-295 > 95.7 µM | HT-29 4.53 µM | IGROV-1 4.7 µM | SK-MEL-5 4.92 µM | A549 > 24.2 µM

CN(C)Cc1cc(C(C)(C)C)cc(CNC2CCCCC2)c1O
28.8 µM: HCT-15
inactive: SW-620 33.5 µM | EKVX 15.8 µM | NCI-H522 24.2 µM | SN12C 35.6 µM | CCRF-CEM 12.9 µM | HCC 2998 11.6 µM | LOX IMVI 22.1 µM | K562 22.1 µM | SF-268 18.7 µM | COLO 205 15.9 µM | RPMI-8226 16.7 µM | NCI/ADR-RES 25.2 µM | DU-145 40.9 µM | MOLT-4 12.3 µM | OVCAR-4 35.6 µM | OVCAR-5 19.2 µM | U-251 45 µM | CAKI-1 44.6 µM | SK-OV-3 30.7 µM | A498 27.9 µM | Malme-3M 25.6 µM | NCI-H460 20.4 µM | HOP-62 41.2 µM | TK-10 27.7 µM | T47D 63.5 µM | OVCAR-3 29.9 µM | UO-31 15.6 µM | NCI-H23 69.7 µM | MDA-MB-435 65.9 µM | 786-0 27.9 µM | M14 16.1 µM | SK-MEL-2 > 100 µM | RXF 393 29.2 µM | KM12 30.4 µM | MDA-N 83.8 µM | PC-3 24.6 µM | UACC-62 51.9 µM | SK-MEL-28 33.3 µM | SNB-75 52.4 µM | SR 19.7 µM | HOP-92 19.5 µM | ACHN 42.9 µM | Hs-578T 61.2 µM | MCF7 29.4 µM | SF-539 17.7 µM | MDA-MB-231 42.3 µM | UACC-257 26.2 µM | BT-549 76.7 µM | SNB-19 > 100 µM | HCT-116 25.4 µM | SF-295 23 µM | HT-29 17.5 µM | IGROV-1 29.4 µM | SK-MEL-5 15.5 µM | A549 29.6 µM
